Measured values from ChEMBL document CHEMBL4229379, “Synthesis and structure-activity relationship of novel bisindole amidines active against MDR Gram-positive and Gram-negative bacteria” (Eur J Med Chem, 2018).
≈ marks a conversion by molar mass, not a printed value.

Legend:
[1] = test system: Pseudomonas aeruginosa; assay: Antibacterial activity against Pseudomonas aeruginosa ATCC 27853 after 18 hrs by CLSI broth microdilution method; assay type: functional; settings: ATCC 27853, 18 h
[2] = test system: Staphylococcus aureus; assay: Antibacterial activity against methicillin-resistant Staphylococcus aureus 12-33 after 18 hrs by CLSI broth microdilution method; assay type: functional; settings: 12-33, 18 h
[3] = test system: Klebsiella pneumoniae; assay: Antibacterial activity against extended-spectrum beta-lactamase deficient Klebsiella pneumoniae 12-4 after 18 hrs by CLSI broth microdilution method; assay type: functional; settings: 12-4, 18 h
[4] = test system: Enterococcus faecalis; assay: Antibacterial activity against vancomycin-sensitive Enterococcus faecalis 12-5 after 18 hrs by CLSI broth microdilution method; assay type: functional; settings: 12-5, 18 h
[5] = test system: Pseudomonas aeruginosa; assay: Antibacterial activity against Pseudomonas aeruginosa PAO1 after 18 hrs by CLSI broth microdilution method; assay type: functional; settings: PAO1, 18 h
[6] = test system: Klebsiella pneumoniae; assay: Antibacterial activity against extended-spectrum beta-lactamase deficient Klebsiella pneumoniae 7 after 18 hrs by CLSI broth microdilution method; assay type: functional; settings: Klebsiella pneumoniae, 7, 18 h
[7] = test system: Escherichia coli; assay: Antibacterial activity against extended-spectrum beta-lactamase deficient Escherichia coli 1515 after 18 hrs by CLSI broth microdilution method; assay type: functional; settings: Escherichia coli, 1515, 18 h
[8] = test system: Citrobacter freundii; assay: Antibacterial activity against Citrobacter freundii ATCC 43864 after 18 hrs by CLSI broth microdilution method; assay type: functional; settings: ATCC 43864, 18 h
[9] = test system: Enterococcus faecium; assay: Antibacterial activity against vancomycin-resistant Enterococcus faecium 12-1 after 18 hrs by CLSI broth microdilution method; assay type: functional; settings: 12-1, 18 h
[10] = test system: Klebsiella aerogenes; assay: Antibacterial activity against Enterobacter aerogenes ATCC 13048 after 18 hrs by CLSI broth microdilution method; assay type: functional; settings: ATCC 13048, 18 h
[11] = test system: Klebsiella pneumoniae; assay: Antibacterial activity against extended-spectrum beta-lactamase harboring Klebsiella pneumoniae ATCC 700603 after 18 hrs by CLSI broth microdilution method; assay type: functional; settings: Klebsiella pneumoniae, 700603, 18 h
[12] = test system: Enterococcus faecalis; assay: Antibacterial activity against vancomycin-resistant Enterococcus faecalis 09-9 after 18 hrs by CLSI broth microdilution method; assay type: functional; settings: 09-9, 18 h
[13] = test system: Pseudomonas aeruginosa; assay: Antibacterial activity against Pseudomonas aeruginosa 12-16 after 18 hrs by CLSI broth microdilution method; assay type: functional; settings: 12-16, 18 h
[14] = test system: Escherichia coli; assay: Antibacterial activity against extended-spectrum beta-lactamase deficient Escherichia coli ATCC 25922 after 18 hrs by CLSI broth microdilution method; assay type: functional; settings: ATCC 25922, 18 h
[15] = Cytotoxicity against HEK293T cells assessed as reduction in cell viability after 48 hrs by MTS assay; assay type: cell-based, HEK-293T; settings: human
[16] = test system: Stenotrophomonas maltophilia; assay: Antibacterial activity against Stenotrophomonas maltophilia ATCC 13636 after 18 hrs by CLSI broth microdilution method; assay type: functional; settings: ATCC 13636, 18 h
[17] = test system: Klebsiella pneumoniae; assay: Antibacterial activity against new delhi metallo-beta-lactamase-1 harboring Klebsiella pneumoniae ATCC BAA-2146 after 18 hrs by CLSI broth microdilution method; assay type: functional; settings: ATCC BAA-2146, 18 h
[18] = test system: Enterococcus faecalis; assay: Antibacterial activity against vancomycin-sensitive Enterococcus faecalis ATCC 29212 after 18 hrs by CLSI broth microdilution method; assay type: functional; settings: ATCC 29212, 18 h
[19] = test system: Providencia rettgeri; assay: Antibacterial activity against Providencia rettgeri ATCC 31052 after 18 hrs by CLSI broth microdilution method; assay type: functional; settings: ATCC 31052, 18 h
[20] = test system: Enterococcus faecium; assay: Antibacterial activity against vancomycin-resistant Enterococcus faecium ATCC 700221 after 18 hrs by CLSI broth microdilution method; assay type: functional; settings: ATCC 700221, 18 h
[21] = test system: Staphylococcus aureus; assay: Antibacterial activity against methicillin-sensitive Staphylococcus aureus 15 after 18 hrs by CLSI broth microdilution method; assay type: functional; settings: Staphylococcus aureus, 15, 18 h
[22] = test system: Klebsiella pneumoniae; assay: Antibacterial activity against extended-spectrum beta-lactamase harboring Klebsiella pneumoniae 12-8 after 18 hrs by CLSI broth microdilution method; assay type: functional; settings: 12-8, 18 h
[23] = test system: Serratia marcescens; assay: Antibacterial activity against Serratia marcescens ATCC 21074 after 18 hrs by CLSI broth microdilution method; assay type: functional; settings: ATCC 21074, 18 h
[24] = test system: Staphylococcus epidermidis; assay: Antibacterial activity against methicillin-sensitive Staphylococcus epidermidis ATCC 12228 after 18 hrs by CLSI broth microdilution method; assay type: functional; settings: ATCC 12228, 18 h
[25] = test system: Staphylococcus aureus; assay: Antibacterial activity against methicillin-sensitive Staphylococcus aureus ATCC 29213 after 18 hrs by CLSI broth microdilution method; assay type: functional; settings: ATCC 29213, 18 h
[26] = test system: Enterobacter cloacae; assay: Antibacterial activity against Enterobacter cloacae ATCC 43560 after 18 hrs by CLSI broth microdilution method; assay type: functional; settings: ATCC 43560, 18 h
[27] = test system: Escherichia coli; assay: Antibacterial activity against extended-spectrum beta-lactamase deficient Escherichia coli 12-14 after 18 hrs by CLSI broth microdilution method; assay type: functional; settings: 12-14, 18 h
[28] = test system: Proteus vulgaris; assay: Antibacterial activity against Proteus vulgaris ATCC 29905 after 18 hrs by CLSI broth microdilution method; assay type: functional; settings: ATCC 29905, 18 h
[29] = test system: Staphylococcus epidermidis; assay: Antibacterial activity against methicillin-resistant Staphylococcus epidermidis 12-8 after 18 hrs by CLSI broth microdilution method; assay type: functional; settings: 12-8, 18 h
[30] = test system: Escherichia coli; assay: Antibacterial activity against extended-spectrum beta-lactamase harboring Escherichia coli 12-15 after 18 hrs by CLSI broth microdilution method; assay type: functional; settings: 12-15, 18 h
[31] = test system: Enterococcus faecium; assay: Antibacterial activity against vancomycin-sensitive Enterococcus faecium 12-3 after 18 hrs by CLSI broth microdilution method; assay type: functional; settings: 12-3, 18 h
[32] = test system: Staphylococcus aureus; assay: Antibacterial activity against methicillin-resistant Staphylococcus aureus ATCC 33591 after 18 hrs by CLSI broth microdilution method; assay type: functional; settings: ATCC 33591, 18 h
[33] = test system: Staphylococcus epidermidis; assay: Antibacterial activity against methicillin-sensitive Staphylococcus epidermidis 12-6 after 18 hrs by CLSI broth microdilution method; assay type: functional; settings: 12-6, 18 h
[34] = test system: Proteus mirabilis; assay: Antibacterial activity against Proteus mirabilis 12-6 after 18 hrs by CLSI broth microdilution method; assay type: functional; settings: 12-6, 18 h
[35] = test system: Enterococcus faecalis; assay: Antibacterial activity against vancomycin-resistant Enterococcus faecalis ATCC 51299 after 18 hrs by CLSI broth microdilution method; assay type: functional; settings: ATCC 51299, 18 h
[36] = test system: Staphylococcus aureus; assay: Antibacterial activity against methicillin-sensitive Staphylococcus aureus 12-28 after 18 hrs by CLSI broth microdilution method; assay type: functional; settings: 12-28, 18 h
[37] = test system: Acinetobacter calcoaceticus; assay: Antibacterial activity against Acinetobacter calcoaceticus ATCC 19606 after 18 hrs by CLSI broth microdilution method; assay type: functional; settings: ATCC 19606, 18 h

Compound	MIC [1] [µg/mL]	MIC [2] [µg/mL]	MIC [3] [µg/mL]	MIC [4] [µg/mL]	MIC [5] [µg/mL]	MIC [6] [µg/mL]	MIC [7] [µg/mL]	MIC [8] [µg/mL]	MIC [9] [µg/mL]	MIC [10] [µg/mL]	MIC [11] [µg/mL]	MIC [12] [µg/mL]	MIC [13] [µg/mL]	MIC [14] [µg/mL]	MIC [16] [µg/mL]	MIC [17] [µg/mL]	MIC [18] [µg/mL]	MIC [19] [µg/mL]	MIC [20] [µg/mL]	MIC [21] [µg/mL]	also measured
CN(C)C(=N)c1ccc2cc(-c3cccc(-c4cc5ccc(C(=N)N(C)C)cc5[nH]4)c3)[nH]c2c1	> 128	8 (≈ 17.8 µM)	> 128	> 128	> 128	> 128	64 (≈ 143 µM)	> 128	8 (≈ 17.8 µM)	> 128	> 128	64 (≈ 143 µM)	> 128	64 (≈ 143 µM)	> 128	> 128	64 (≈ 143 µM)	128 (≈ 285 µM)	16 (≈ 35.7 µM)	4 (≈ 8.92 µM)	CC50 at 48 h [15]: 52.2 µg/mL (≈ 116 µM); MIC [22]: > 128 µg/mL; MIC [23]: > 128 µg/mL; MIC [24]: 8 µg/mL (≈ 17.8 µM); MIC [25]: 8 µg/mL (≈ 17.8 µM); MIC [26]: > 128 µg/mL; MIC [27]: 64 µg/mL (≈ 143 µM); MIC [28]: > 128 µg/mL; MIC [29]: 16 µg/mL (≈ 35.7 µM); MIC [30]: 64 µg/mL (≈ 143 µM); MIC [31]: > 128 µg/mL; MIC [32]: 4 µg/mL (≈ 8.92 µM); MIC [33]: 32 µg/mL (≈ 71.3 µM); MIC [34]: > 128 µg/mL; MIC [35]: 128 µg/mL (≈ 285 µM); MIC [36]: 4 µg/mL (≈ 8.92 µM); MIC [37]: > 128 µg/mL
COCCNC(=N)c1ccc2cc(-c3ccc(-c4cc5ccc(C(=N)NCCOC)cc5[nH]4)cc3)[nH]c2c1	16 (≈ 31.5 µM)	0.25 (≈ 0.492 µM)	8 (≈ 15.7 µM)	2 (≈ 3.93 µM)	32 (≈ 62.9 µM)	8 (≈ 15.7 µM)	8 (≈ 15.7 µM)	2 (≈ 3.93 µM)	0.5 (≈ 0.983 µM)	8 (≈ 15.7 µM)	16 (≈ 31.5 µM)	1 (≈ 1.97 µM)	32 (≈ 62.9 µM)	2 (≈ 3.93 µM)	16 (≈ 31.5 µM)	8 (≈ 15.7 µM)	0.5 (≈ 0.983 µM)	8 (≈ 15.7 µM)	0.5 (≈ 0.983 µM)	0.25 (≈ 0.492 µM)	CC50 at 48 h [15]: 3.95 µg/mL (≈ 7.77 µM); MIC [22]: 8 µg/mL (≈ 15.7 µM); MIC [23]: 16 µg/mL (≈ 31.5 µM); MIC [24]: 0.125 µg/mL (≈ 0.246 µM); MIC [25]: 0.25 µg/mL (≈ 0.492 µM); MIC [26]: 2 µg/mL (≈ 3.93 µM); MIC [27]: 2 µg/mL (≈ 3.93 µM); MIC [28]: 16 µg/mL (≈ 31.5 µM); MIC [29]: 0.125 µg/mL (≈ 0.246 µM); MIC [30]: 4 µg/mL (≈ 7.86 µM); MIC [31]: 0.5 µg/mL (≈ 0.983 µM); MIC [32]: 0.25 µg/mL (≈ 0.492 µM); MIC [33]: 0.125 µg/mL (≈ 0.246 µM); MIC [34]: 32 µg/mL (≈ 62.9 µM); MIC [35]: 0.5 µg/mL (≈ 0.983 µM); MIC [36]: 0.25 µg/mL (≈ 0.492 µM); MIC [37]: 32 µg/mL (≈ 62.9 µM)
CN(C)C(=N)c1ccc2cc(-c3ccc(Oc4ccc(-c5cc6ccc(C(=N)N(C)C)cc6[nH]5)cc4)cc3)[nH]c2c1	128 (≈ 237 µM)	0.25 (≈ 0.462 µM)	8 (≈ 14.8 µM)	2 (≈ 3.7 µM)	> 128	8 (≈ 14.8 µM)	4 (≈ 7.4 µM)	8 (≈ 14.8 µM)	2 (≈ 3.7 µM)	8 (≈ 14.8 µM)	8 (≈ 14.8 µM)	2 (≈ 3.7 µM)	> 128	4 (≈ 7.4 µM)	16 (≈ 29.6 µM)	8 (≈ 14.8 µM)	0.5 (≈ 0.925 µM)	8 (≈ 14.8 µM)	2 (≈ 3.7 µM)	0.25 (≈ 0.462 µM)	MIC [22]: 8 µg/mL (≈ 14.8 µM); MIC [23]: 32 µg/mL (≈ 59.2 µM); MIC [24]: 0.125 µg/mL (≈ 0.231 µM); MIC [25]: 0.25 µg/mL (≈ 0.462 µM); MIC [26]: 64 µg/mL (≈ 118 µM); MIC [27]: 8 µg/mL (≈ 14.8 µM); MIC [28]: 8 µg/mL (≈ 14.8 µM); MIC [29]: 0.25 µg/mL (≈ 0.462 µM); MIC [30]: 8 µg/mL (≈ 14.8 µM); MIC [31]: 2 µg/mL (≈ 3.7 µM); MIC [32]: 0.25 µg/mL (≈ 0.462 µM); MIC [33]: 0.25 µg/mL (≈ 0.462 µM); MIC [34]: 32 µg/mL (≈ 59.2 µM); MIC [35]: 1 µg/mL (≈ 1.85 µM); MIC [36]: 0.25 µg/mL (≈ 0.462 µM); MIC [37]: > 128 µg/mL
